# US11547681B2, “N-acylethanolamide derivatives and uses thereof” (ELIEM THERAPEUTICS, INC., priority 2016, dated 2023)
# Assay: in vitro
# Conditions: for Measured concentration of PEA (analyte) / % Remaining of Initial / Measured concentration of analyte PEA, 0 min / Measured concentration of analyte PEA, 10 min / Measured concentration of analyte PEA, 20 min / Measured concentration of analyte PEA, 30 min / Measured concentration of analyte PEA, 60 min / % Remaining of Initial, 0 min / % Remaining of Initial, 10 min / % Remaining of Initial, 20 min / % Remaining of Initial, 30 min / % Remaining of Initial, 60 min: 1 μM; for % Remaining of Initial / microsomal CLint at 1 μM / half-life at 1 μM / % Remaining of Initial, 0 min / % Remaining of Initial, 10 min / % Remaining of Initial, 20 min / % Remaining of Initial, 30 min / % Remaining of Initial, 60 min: microsomes
# Description: The reaction mixture, minus cofactors, was prepared as described below. The test article was added into the reaction mixture at a final concentration of 1 μM. […] An aliquot of the reaction mixture (without cofactor) was equilibrated in a shaking water bath at 37° C. for 3 minutes. The reaction was initiated by the addition of cofactor, and the mixture was incubated in a shaking water bath at 37° C. Aliquots (100 μL) were withdrawn at 0, 10, 20, 30, and 60 minutes. All samples were immediately combined with 400 μL of ice-cold 50/50 acetonitrile/H2O containing 0.1% formic acid and internal standard to terminate the reaction. The samples were then mixed and centrifuged to precipitate proteins. Calibration standards were prepared in matched matrix. All samples and standards were assayed by LC-MS/MS using electrospray ionization for both the dosed prodrug I-9 and the expected drug (PEA). Analytical conditions are outlined in Appendix 4-1. The test article concentration at each time point was compared to the test article concentration at time 0 to determine the percent remaining at each time point. Half-lives were calculated using GraphPad software, fitting to a single-phase exponential decay equation.
# Reaction mixture, minus cofactors, was prepared as described below. Test article was added into the reaction mixture at a final concentration of 1 μM. […] An aliquot of the reaction mixture (without cofactor) was equilibrated in a shaking water bath at 37° C. for 3 minutes. The reaction was initiated by the addition of cofactor, and the mixture was incubated in a shaking water bath at 37° C. Aliquots (100 μL) were withdrawn at 0, 10, 20, 30, and 60 minutes. Test article samples were immediately combined with 300 μL of ice-cold acetonitrile containing 1% formic acid. Control samples were immediately combined with 400 μL of ice-cold 50/50 acetonitrile (ACN)/dH2O containing 0.1% formic acid and internal standard to terminate the reaction. Samples were then mixed and centrifuged to precipitate proteins. Calibration standards were prepared in matched matrix. Samples and standards were assayed by LC-MS/MS using electrospray ionization for both dosed prodrug and expected drug (PEA). Analytical conditions are outlined in Appendix 8-1. Test article concentration at each time point was compared to test article concentration at time 0 to determine the percent remaining at each time point. Half-lives were calculated using GraphPad software, fitting to a single-phase exponential decay equation.
# Reaction mixture, minus cofactors, was prepared as described below. Test article was added into the reaction mixture at a final concentration of 1 μM. […] An aliquot of the reaction mixture (without cofactor) was equilibrated in a shaking water bath at 37° C. for 5 minutes. Reaction was initiated by the addition of cofactor, and the mixture was incubated in a shaking water bath at 37° C. Aliquots (100 μL) were withdrawn at 0, 10, 20, 30, and 60 minutes. Test article samples were immediately combined with 300 μL of ice-cold acetonitrile containing 1% formic acid. Control samples were immediately combined with 400 μL of ice-cold 50/50 acetonitrile (ACN)/dH2O containing 0.1% formic acid and internal standard to terminate the reaction. Samples were then mixed and centrifuged to precipitate proteins. Calibration standards were prepared in matched matrix. Samples and standards were assayed by LC-MS/MS using electrospray ionization for both the dosed prodrug and the expected drug (PEA). Analytical conditions are outlined in Appendix 10-1. Test article concentration at each time point was compared to the test article concentration at time 0 to determine the percent remaining at each time point. Half-lives were calculated using GraphPad software, fitting to a single-phase exponential decay equation.
# Reaction mixture, minus cofactors, was prepared as described below. Test article was added into the reaction mixture at a final concentration of 1 μM.
# [1] = both, human, calculated value in parentheses
# [2] = male, Sprague-Dawley, rat, 0 min
# [3] = male, Sprague-Dawley, rat, 10 min
# [4] = male, Sprague-Dawley, rat, 20 min
# [5] = male, Sprague-Dawley, rat, 30 min
# [6] = male, Sprague-Dawley, rat, 60 min
# [7] = male, Sprague-Dawley, rat, 0.5 h
# [8] = male, Sprague-Dawley, rat, calculated value in parentheses
compound,measurement,setting,value
CCCCCCCCCCCCCCCC(=O)NCCOC(=O)CCC(=O)OC(CO)CO [Compound I-8],Measured concentration of PEA (analyte),"both, human, 0 min",0.063 µM
same,Measured concentration of PEA (analyte),"both, human, 10 min",0.34 µM
same,Measured concentration of PEA (analyte),"both, human, 20 min",0.25 µM
same,Measured concentration of PEA (analyte),"both, human, 30 min",0.21 µM
same,Measured concentration of PEA (analyte),"both, human, 60 min",0.070 µM
same,% Remaining of Initial,"both, human, 0 h",100%
same,% Remaining of Initial,"both, human, 10 min",2.8%
same,% Remaining of Initial,"both, human, 20 min",<1.0%
same,% Remaining of Initial,"both, human, 0.5 h",<1.0%
same,% Remaining of Initial,"both, human, 1 h",<1.0%
same,microsomal CLint at 1 μM,"both, human",> 139 µL/min/mg
same,microsomal CLint at 1 μM,[1],712 µL/min/mg
same,half-life at 1 μM,"both, human",< 10 min
same,half-life at 1 μM,[1],2 min
same,Measured concentration of PEA (analyte),[2],0.033 µM
same,Measured concentration of PEA (analyte),[3],0.041 µM
same,Measured concentration of PEA (analyte),[4],0.019 µM
same,Measured concentration of PEA (analyte),[5],0 µM
same,Measured concentration of PEA (analyte),[6],0 µM
same,% Remaining of Initial,"male, Sprague-Dawley, rat, 0 h",100%
same,% Remaining of Initial,[3],4.3%
same,% Remaining of Initial,[4],1.2%
same,% Remaining of Initial,[7],<1.0%
same,% Remaining of Initial,"male, Sprague-Dawley, rat, 1 h",<1.0%
same,microsomal CLint at 1 μM,"male, Sprague-Dawley, rat",> 139 µL/min/mg
same,microsomal CLint at 1 μM,[8],624 µL/min/mg
same,half-life at 1 μM,"male, Sprague-Dawley, rat",< 10 min
same,half-life at 1 μM,[8],2.2 min
CCCCCCCCCCCCCCCC(=O)NCCOC(=O)CCC(=O)OC(COC(=O)CCC)COC(=O)CCC [Compound I-16],Measured concentration of PEA (analyte),"both, human, 0 min",0 µM
same,Measured concentration of PEA (analyte),"both, human, 10 min",0.22 µM
same,Measured concentration of PEA (analyte),"both, human, 20 min",0.15 µM
same,Measured concentration of PEA (analyte),"both, human, 30 min",0.14 µM
same,Measured concentration of PEA (analyte),"both, human, 60 min",0.069 µM
same,% Remaining of Initial,"both, human, 0 h",100%
same,% Remaining of Initial,"both, human, 10 min",8.0%
same,% Remaining of Initial,"both, human, 20 min",3.5%
same,% Remaining of Initial,"both, human, 0.5 h",1.9%
same,% Remaining of Initial,"both, human, 1 h",<1.0%
same,microsomal CLint at 1 μM,"both, human",> 139 µL/min/mg
same,microsomal CLint at 1 μM,[1],493 µL/min/mg
same,half-life at 1 μM,"both, human",< 10 min
same,half-life at 1 μM,[1],2.8 min
same,Measured concentration of PEA (analyte),[2],0.025 µM
same,Measured concentration of PEA (analyte),[3],0.033 µM
same,Measured concentration of PEA (analyte),[4],0.015 µM
same,Measured concentration of PEA (analyte),[5],0 µM
same,Measured concentration of PEA (analyte),[6],0 µM
same,% Remaining of Initial,"male, Sprague-Dawley, rat, 0 h",100%
same,% Remaining of Initial,[3],9.7%
same,% Remaining of Initial,[4],4.2%
same,% Remaining of Initial,[7],3.1%
same,% Remaining of Initial,"male, Sprague-Dawley, rat, 1 h",<1.0%
same,microsomal CLint at 1 μM,"male, Sprague-Dawley, rat",> 139 µL/min/mg
same,microsomal CLint at 1 μM,[8],452 µL/min/mg
same,half-life at 1 μM,"male, Sprague-Dawley, rat",< 10 min
same,half-life at 1 μM,[8],3.1 min
CCCCCCCCCCCCCCCC(=O)NCCOC(=O)CCC(=O)OC[C@H]1O[C@@](CO)(O[C@H]2O[C@H](CO)[C@@H](O)[C@H](O)[C@H]2O)[C@@H](O)[C@@H]1O [Compound I-7],"Measured concentration of analyte PEA, 0 min","both, human, 0 min",0.22 µM
same,"Measured concentration of analyte PEA, 10 min","both, human, 10 min",0.39 µM
same,"Measured concentration of analyte PEA, 20 min","both, human, 20 min",0.28 µM
same,"Measured concentration of analyte PEA, 30 min","both, human, 30 min",0.22 µM
same,"Measured concentration of analyte PEA, 60 min","both, human, 60 min",0.080 µM
same,"% Remaining of Initial, 0 min","both, human, 0 h",100%
same,"% Remaining of Initial, 10 min","both, human, 10 min",4.6%
same,"% Remaining of Initial, 20 min","both, human, 20 min",1.3%
same,"% Remaining of Initial, 30 min","both, human, 0.5 h",<1.0%
same,"% Remaining of Initial, 60 min","both, human, 1 h",<1.0%
same,microsomal CLint at 1 μM,"both, human",612 µL/min/mg
same,half-life at 1 μM,"both, human",2.3 min
same,"Measured concentration of analyte PEA, 0 min",[2],0.054 µM
same,"Measured concentration of analyte PEA, 10 min",[3],0.14 µM
same,"Measured concentration of analyte PEA, 20 min",[4],0.087 µM
same,"Measured concentration of analyte PEA, 30 min",[5],0.045 µM
same,"Measured concentration of analyte PEA, 60 min",[6],0.0085 µM
same,"% Remaining of Initial, 0 min","male, Sprague-Dawley, rat, 0 h",100%
same,"% Remaining of Initial, 10 min",[3],45%
same,"% Remaining of Initial, 20 min",[4],17%
same,"% Remaining of Initial, 30 min",[7],11%
same,"% Remaining of Initial, 60 min","male, Sprague-Dawley, rat, 1 h",2.1%
same,microsomal CLint at 1 μM,"male, Sprague-Dawley, rat",164 µL/min/mg
same,half-life at 1 μM,"male, Sprague-Dawley, rat",8.5 min
CCCCCCCCCCCCCCCC(=O)NCCOC(=O)CCC [Compound I-2],"Measured concentration of analyte PEA, 0 min","both, human, 0 min",0.15 µM
same,"Measured concentration of analyte PEA, 10 min","both, human, 10 min",0.23 µM
same,"Measured concentration of analyte PEA, 20 min","both, human, 20 min",0.19 µM
same,"Measured concentration of analyte PEA, 30 min","both, human, 30 min",0.15 µM
same,"Measured concentration of analyte PEA, 60 min","both, human, 60 min",0.071 µM
same,"% Remaining of Initial, 0 min","both, human, 0 h",100%
same,"% Remaining of Initial, 10 min","both, human, 10 min",10%
same,"% Remaining of Initial, 20 min","both, human, 20 min",1.6%
same,"% Remaining of Initial, 30 min","both, human, 0.5 h",<1.0%
same,"% Remaining of Initial, 60 min","both, human, 1 h",<1.0%
same,microsomal CLint at 1 μM,"both, human",451 µL/min/mg
same,half-life at 1 μM,"both, human",3.1 min
same,"Measured concentration of analyte PEA, 0 min",[2],0.40 µM
same,"Measured concentration of analyte PEA, 10 min",[3],0.11 µM
same,"Measured concentration of analyte PEA, 20 min",[4],0.028 µM
same,"Measured concentration of analyte PEA, 30 min",[5],0.0083 µM
same,"Measured concentration of analyte PEA, 60 min",[6],0 µM
same,"% Remaining of Initial, 0 min","male, Sprague-Dawley, rat, 0 h",100%
same,"% Remaining of Initial, 10 min",[3],<1.0%
same,"% Remaining of Initial, 20 min",[4],<1.0%
same,"% Remaining of Initial, 30 min",[7],<1.0%
same,"% Remaining of Initial, 60 min","male, Sprague-Dawley, rat, 1 h",<1.0%
same,microsomal CLint at 1 μM,"male, Sprague-Dawley, rat",> 1380 µL/min/mg
same,half-life at 1 μM,"male, Sprague-Dawley, rat",< 1 min
